Test results from paper PMC9600589, “The Heptaprenyl Diphosphate Synthase (Coq1) Is the Target of a Lipophilic Bisphosphonate That Protects Mice against Toxoplasma gondii Infection” (mBio, 2022).

How the values were obtained:
hTERT cells = assay: Cytotoxicity to hTERT cells (alamarBlue); details: for % Inhibition (cytotoxicity): hTERT cells
Protocol: The cytotoxicity was tested using an alamarBlue assay as described by Recher et al. ([67]).

T. gondii RH strain = assay: Acute lethal infection of mice with RH tachyzoites; assay type: in vivo, Swiss Webster mice; details: mice infected with 100 RH tachyzoites, intraperitoneal, daily for 10 days from 6 h postinfection
Protocol: (§1) At this point, live mice were inoculated with δ-luciferin for visualization of the infection in an IVIS illumination system ([34]).
Experiments were carried out as described previously ([49]) using 100 T. gondii tachyzoites of the RH strain to infect Webster mice. Drugs were dissolved in 10% kolliphor HS 15 and were inoculated intraperitoneally. Treatment was initiated 6 h after infection and administered daily for 10 days.

T. gondii RH-cLuc-GFP = assay: Dissemination of infection, luciferase-expressing RH parasites, in vivo imaging; parameters: species or system Swiss Webster mice; details: 1 mg/kg single daily dose for 8 days
Description: as §1

[1] = tested on: T. gondii RH parental strain; assay: Plaque assay measuring growth reversibility after drug removal; assay type: cell-based, Toxoplasma gondii; details: 7 days with 1 μM or 2 μM, then 7 days without drug
T. cruzi = tested on: T. cruzi; parameters: method as in PMID 24789335; details: cited from earlier work
[2] = tested on: T. gondii parental strain (TatiΔku80); assay: Growth inhibition of the parental strain; assay type: cell-based; details: Toxoplasma gondii, read-out: EC50 (TatiΔku80)
Protocol: (§2) Previous work has shown that bisphosphonates can target several enzymes of the isoprenoid biosynthesis pathway, including the farnesyl diphosphate synthase (FPPS), which synthesizes FPP, the preferred substrate of TgCoq1 ([14]). […] We further determined specificity against TgCoq1, by comparing the growth inhibition of the compound against a parental strain (TatiΔku80) versus a cell line overexpressing TgCoq1 (TgCoq1-OE).
(§3) Experiments on T. gondii tachyzoites were carried out using parasites expressing red fluorescent protein (RFP) ([66]) with the modification described by Recher et al. ([67]). Tachyzoites were maintained in human fibroblasts (hTERT cells). For drug testing and growth assays, parasites were purified by passing them through a 25-gauge needle, followed by filtration through a 3-μm filter. Human fibroblasts were cultured in 96-well black-sided plates for 24 h before the addition of 4,000 fluorescent tachyzoites/well. […] The EC50s were calculated using Prism software. The UQ6 experiments were performed using the same protocol as described above. The parasites were supplemented with 10 μM UQ6.

[3] = tested on: T. gondii TgCoq1-OE strain; assay: Growth inhibition of the TgCoq1 overexpressing strain; assay type: cell-based; details: Toxoplasma gondii, read-out: EC50 TgCoq1-OE strain
Protocol: as §2, §3

T. gondii RH = assay: In vitro growth inhibition of RFP-expressing tachyzoites in hTERT fibroblasts; assay type: cell-based, Toxoplasma gondii; details: 10 μM UQ6 added to the culture
Protocol: as §3

Row | Compound | toxicity against human fibroblast cells (hTERT cells) | % Inhibition (cytotoxicity) (hTERT cells; at 4X EC50 (concentration in μM in brackets)) [%] | % Inhibition (cytotoxicity) (hTERT cells; at 10X EC50 (concentration in μM in brackets)) [%] | ED50 (T. gondii RH strain) [mg/kg/day] | effect on virulence and dissemination of the infection (T. gondii RH-cLuc-GFP) | reversibility of growth inhibition after drug removal [1] | decrease in UQ9 biosynthesis (T. cruzi) [%] | EC50 [2] [nM] | EC50 [3] [nM] | rescue of growth inhibition by UQ6 (T. gondii RH)
1 | CCCCCCCCCCn1cc[n+](CC(P(=O)([O-])O)P(=O)(O)O)c1 (stereo not drawn) [BPH-1218] | very little toxicity | 4.30 ± 2.31 | 10.28 ± 1.07 | 0.69 | remarkable effect on both virulence and dissemination of the infection | irreversible | 40 |  |  | 
2 | CC(C)=CCC/C(C)=C/CNCCNC1C2CC3CC(C2)CC1C3 (stereo not drawn) [SQ109] |  |  |  |  |  |  |  | 1730 ± 380 | 1800 ± 470 | 
3 | O=C1C(O)=C([C@H]2CC[C@H](c3ccc(Cl)cc3)CC2)C(=O)c2ccccc21 [Atovaquone] |  |  |  |  |  |  |  | 30 ± 10 | 40 ± 10 | modest rescue
